Assay results from patent US8394971B2, “Indole derivatives as selective androgen receptor modulators (SARMS)” (Janssen Pharmaceutica N.V., priority 2004, dated 2013).
Values joined by “and” are separate entries in the source; they are usually repeats but may differ in a detail not shown here. Identical values can stand only once.

How the values were obtained:
[1] = target: T1, androgen receptor (adenovirus AdEasy+rAR in COS-7 cells) (Rattus norvegicus, UniProt P15207); assay: COS-7 Whole-Cell Androgen Receptor Binding Assay, Adenovirus Transduction; conditions: for % Inhibition / inhibition at 3 µM: COS binding, 3000 nM unless otherwise noted
T1 construct: expressed in transfected cells
T1 sequence (P15207 1-902): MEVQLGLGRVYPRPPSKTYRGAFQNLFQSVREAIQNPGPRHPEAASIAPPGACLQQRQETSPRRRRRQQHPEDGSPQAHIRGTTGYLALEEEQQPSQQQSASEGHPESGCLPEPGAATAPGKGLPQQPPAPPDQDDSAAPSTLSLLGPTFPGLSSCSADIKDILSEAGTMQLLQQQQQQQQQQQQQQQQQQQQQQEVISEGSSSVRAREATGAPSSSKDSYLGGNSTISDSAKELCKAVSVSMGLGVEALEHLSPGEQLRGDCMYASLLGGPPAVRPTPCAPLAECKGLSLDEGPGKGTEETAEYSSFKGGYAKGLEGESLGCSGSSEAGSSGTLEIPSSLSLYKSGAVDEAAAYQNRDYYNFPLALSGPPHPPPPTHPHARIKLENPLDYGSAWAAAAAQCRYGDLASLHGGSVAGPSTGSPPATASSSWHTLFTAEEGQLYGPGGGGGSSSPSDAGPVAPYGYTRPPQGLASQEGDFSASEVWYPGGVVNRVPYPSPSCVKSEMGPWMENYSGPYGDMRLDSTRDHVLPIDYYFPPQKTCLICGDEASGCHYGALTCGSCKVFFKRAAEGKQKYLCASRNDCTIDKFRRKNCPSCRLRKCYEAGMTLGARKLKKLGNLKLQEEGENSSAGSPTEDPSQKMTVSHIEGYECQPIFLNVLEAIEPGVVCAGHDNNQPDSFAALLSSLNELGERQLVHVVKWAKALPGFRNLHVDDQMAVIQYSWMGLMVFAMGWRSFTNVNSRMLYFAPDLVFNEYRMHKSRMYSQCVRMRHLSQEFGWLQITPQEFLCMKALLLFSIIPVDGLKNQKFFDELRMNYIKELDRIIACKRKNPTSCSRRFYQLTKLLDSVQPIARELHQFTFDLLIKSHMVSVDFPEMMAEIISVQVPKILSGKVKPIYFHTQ
Method: COS-7 cells were plated in 96-well plates at 20,000 cells per well, in a solution of DMEM/F12 (GIBCO) containing 10% (v/v) charcoal-treated fetal bovine serum (Hyclone) and lacking phenol red. The cells were then incubated overnight at 37° C. in 5% (v/v) humidified CO2.
Test compound solutions were prepared by diluting the test compound in 100% (v/v) DMSO, if necessary.
Next, 1 mL of DMEM/F12 lacking phenol red was pipetted into each of the wells of a 2-mL 96-well assay block. […] The wells were carefully mixed by pipette.
In a 15 mL or 50 mL sterile centrifuge tube, a dilution in DMEM/F12 of the adenovirus AdEasy+rAR at a moi of 1:50 per well was prepared.
The medium was removed from the 96-well plates by inversion and the plates dried very briefly, inverted, on a sterile towel. As soon as possible after medium removal, 40 μL of the diluted test compound was added to each well, in duplicate. […] The plates were then incubated for 48 hours at 37° C. in 5% (v/v) humidified CO2.
The medium was removed from the above incubated plates by inversion and dried. Each well was then washed with 0.35 mL of 1×PBS. The PBS was then removed from the plates by inversion and the plates dried.
To each well was then added 50 μL of 0.5% (v/v) Triton X-100 (Sigma) in 1×PBS and the plates placed on a rotary shaker for 5 min. The contents of each well were then transferred to an OptiPlate-96 (Packard) scintillation plate. To each well was then added 0.2 mL of Microscint-20 (Packard) and the wells counted on a TopCount (Packard).
[…] Counts per well were measured and percents of inhibition determined. […] Counts per well were measured and IC50s determined by linear regression.

[2] = target: T2, androgen receptor (adenovirus AdEasy+rAR in L929 cells) (Rattus norvegicus, UniProt P15207); assay: L929 Androgen Receptor Functional Assay, Adenovirus Transduction; format: cell-based; conditions: for % Activity: L929 agonist testing
T2 construct: expressed in transfected cells
T2 sequence (P15207 1-902): T1 sequence (P15207 1-902)
Method: L929 cells were plated in 96-well plates at 20,000 cells per well, in DMEM/F12 (GIBCO) containing 10% (v/v) charcoal-treated fetal bovine serum (Hyclone) and lacking phenol red. The plates were then incubated overnight at 37° C. in 5% (v/v) humidified CO2.
Test compound dilutions were prepared in 100% (v/v) DMSO, if necessary. Each dilution was made to 1250× the final desired assay concentration.
First, 2 mL of DMEM/F12 lacking phenol red was pipetted into the wells of a 2-mL 96-well assay block. Next, 4 μL of the 1250× test compound dilutions were pipetted into each well of the assay block. The mixtures within the well were then carefully mixed by pipette.
In a 15 mL or 50 mL sterile centrifuge tube, a 2.5 nM (2.5×) dilution of R1881 (methyl-trienolone) in DMEM/F12 lacking phenol red was prepared.
In a second 15 mL or 50 mL centrifuge tube a solution containing an equal volume of DMEM to the first and an equal volume of 100% (v/v) DMSO to the volume of R1881 used in the first tube was prepared.
In a 15 mL or 50 mL sterile centrifuge tube, a dilution in DMEM/F12 of the adenovirus AdEasy+rAR at an moi of 1:500 per well was prepared.
The medium was removed from the 96-well plates by inversion and dried, inverted, very briefly. As soon as possible after medium removal, 40 μL of the diluted unlabeled test compound was added to each well, in duplicate. To each well designated for antagonist testing was added 40 μL of the 2.5 nM R1881 dilution to the wells for antagonist testing. To each well designated for agonist testing was added 40 μL of the DMSO dilution. Then 20 μL of the diluted adenovirus were added to all wells. The plates were incubated for 48 hours at 37° C. in 5% (v/v) humidified CO2.
To each well was added 100 μL of Steady-Glo luciferase assay substrate (Promega) and the plates were placed on a rotary shaker for 1 min. The plates were then incubated at room temperature in the dark for one hour. The contents of each well were then transferred to a white microtiter plate (Packard) and read on a Luminoskan Ascent (Thermo Lab Systems).
L929 AR percent activity was determined by testing dilutions of the test compound using a concentration of 3000 nM unless otherwise noted. L929 percent inhibition was determined by testing dilutions of the test compound using a concentration of 3000 nM. […] Luciferase activity per well were measured and EC50s and IC50s determined by linear regression.

[3] = tested on: testosterone-enhanced ventral prostate and seminal vesicle weights in castrated male Sprague Dawley rats; assay: Ventral Prostate and Seminal Vesicle Weight In Vivo Assay; design: species or system rat; conditions: immature castrated rats; once daily for five days, usually orally at 40 mg/kg, with testosterone propionate 2 mg/kg s.c.
Method: Immature (approximately 50 g) castrated male Sprague Dawley rats (Charles River) were treated once daily for five days with test compound (usually given orally at 40 mg/kg in a volume of 0.3 mL, in 30% cyclodextrin or 0.5% methylcellulose vehicle) and with testosterone propionate (given subcutaneously by injection at the nape of the neck at 2 mg/kg, in a volume of 0.1 mL in sesame oil). On the sixth day, the rats were euthanized by asphyxiation in carbon dioxide. Ventral prostates and seminal vesicles were removed and their wet weights determined.
A test compound was said to be “active” if the non weight adjusted prostate weight was ≦40 mg or the % Inhibition prostate weight, body weight adjusted was ≧40% @2 mg/day dosage.

CCSCC(C)(O)c1cc2cc(Cl)ccc2n1S(C)(=O)=O (racemic) [compound 154]
% Inhibition [1]: 50%
% Activity ([2]; 3000 nM): 2%
% Inhibition ([2]; L929 antagonist testing with R1881, 3000 nM): 7%

CC(O)(CSc1ccc(O)cc1)c1cc2cc(Cl)c(C(F)(F)F)cc2[nH]1 (stereo not drawn) [compound 120]
inhibition at 3 µM [1]: 86%
% Activity ([2]; 3000 nM): −5%

CC(O)(CSc1ccccc1N)c1cc2cc(Cl)c(C(F)(F)F)cc2[nH]1 (stereo not drawn) [compound 123]
% Activity ([2]; 3000 nM): −4%
% Activity ([2]; @ 8000 nM): 1 @ 8000 nM %
active / inactive (inhibition of testosterone-enhanced prostate weight) [3]: inactive

CC(O)(CS(C)(=O)=O)c1cc2cc([N+](=O)[O-])c(C(F)(F)F)cc2[nH]1 (stereo not drawn) [compound 148]
% Inhibition [1]: 32%
% Activity ([2]; 3000 nM): 0%

CCSCC(C)(O)c1cc2cc([N+](=O)[O-])c(C(F)(F)F)cc2[nH]1 (single isomer, unassigned) [compound 150]
% Inhibition [1]: 81% and 74%
% Activity ([2]; @ 8000 nM): 0 @ 8000 nM %

CCSCC(C)(O)c1[nH]c2cc(C(F)(F)F)c(Br)cc2c1C (stereo not drawn) [compound 220]
inhibition at 3 µM ([2]; L929, L929 antagonist testing with R1881, 3000 nM): 103%
% Activity ([2]; 3000 nM): −3%
active / inactive (inhibition of testosterone-enhanced prostate weight) [3]: inactive

CCSCC(C)(O)c1[nH]c2cc(C(F)(F)F)c(C#N)cc2c1C (stereo not drawn) [compound 219]
% Activity ([2]; 3000 nM, 3 µM): −3%
active / inactive (inhibition of testosterone-enhanced prostate weight) [3]: inactive

CC(O)(CSCc1ccco1)c1cc2cc([N+](=O)[O-])c(C(F)(F)F)cc2[nH]1 (racemic) [compound 198]
% Activity ([2]; 3000 nM): 7%
active / inactive (inhibition of testosterone-enhanced prostate weight) [3]: inactive

CSC(C)(O)c1cc2cc([N+](=O)[O-])c(C(F)(F)F)cc2[nH]1 (racemic) [compound 267]
% Activity ([2]; 3000 nM, 3 µM): −5% and 0%
active / inactive (inhibition of testosterone-enhanced prostate weight) [3]: inactive

CN(C)c1ccc(SCC(C)(O)c2cc3cc(Cl)c(C(F)(F)F)cc3[nH]2)cc1 (stereo not drawn) [compound 124]
% Activity ([2]; 3000 nM): −4%
active / inactive (inhibition of testosterone-enhanced prostate weight) [3]: inactive

O=[N+]([O-])c1cc2cc(C3(O)CCSCC3)[nH]c2cc1C(F)(F)F [compound 17]
IC50 [1]: > 1500 nM
active / inactive (inhibition of testosterone-enhanced prostate weight) [3]: inactive

CC[S+]([O-])CC(O)c1cc2cc([N+](=O)[O-])c(C(F)(F)F)cc2[nH]1 (mixture of isomers) [compound 180]
% Activity ([2]; 3000 nM): 2%
active / inactive (inhibition of testosterone-enhanced prostate weight) [3]: inactive

CC(O)(CS(C)(=O)=O)c1cc2cc([N+](=O)[O-])c(C(F)(F)F)cc2[nH]1 (stereo not drawn) [compound 147]
% Inhibition [1]: 6.1%
% Activity ([2]; 3000 nM): 0%

CC(O)(CSc1ccc(C(=O)O)cc1)c1cc2cc(Cl)c(C(F)(F)F)cc2[nH]1 (stereo not drawn) [compound 133]
inhibition at 3 µM [1]: 65%
% Activity ([2]; 3000 nM): −4%

CSCCC(C)(O)c1cc2cc(Cl)c(C(F)(F)F)cc2[nH]1 (racemic) [compound 51]
% Activity ([2]; 3000 nM): 2%
active / inactive (inhibition of testosterone-enhanced prostate weight) [3]: inactive

CC(O)(CSc1ccc(C(=O)O)cc1)c1cc2cc(Cl)c(C(F)(F)F)cc2n1S(C)(=O)=O (stereo not drawn) [compound 132]
inhibition at 3 µM [1]: 8.7%
% Activity ([2]; 3000 nM): −5%

CCS(=O)(=O)CC(C)(O)c1cc2cc(C#N)c(C(F)(F)F)cc2n1C (racemic) [compound 240]
% Activity ([2]; 3000 nM): 0%
active / inactive (inhibition of testosterone-enhanced prostate weight) [3]: inactive

CCSCC(C)(O)c1[nH]c2cc(C(F)(F)F)c([N+](=O)[O-])cc2c1C#N (stereo not drawn) [compound 242]
inhibition at 3 µM [1]: 92%
active / inactive (inhibition of testosterone-enhanced prostate weight) [3]: inactive

CC(O)(CS(=O)(=O)CC(F)(F)F)c1cc2cc([N+](=O)[O-])c(C(F)(F)F)cc2[nH]1 (racemic) [compound 208]
% Activity ([2]; 3000 nM): 1%
active / inactive (inhibition of testosterone-enhanced prostate weight) [3]: active

CC(O)(CS(=O)(=O)CC(F)(F)F)c1[nH]c2cc([N+](=O)[O-])c(C(F)(F)F)cc2c1Cl (stereo not drawn) [compound 207]
% Activity ([2]; 3000 nM, 3 µM): 1% and −1%
active / inactive (inhibition of testosterone-enhanced prostate weight) [3]: active

CCSCC(C)(O)c1cc2cc(Cl)c(C(F)(F)F)cc2[nH]1 (stereo not drawn) [compound 152]
inhibition at 3 µM [1]: 39%
active / inactive (inhibition of testosterone-enhanced prostate weight) [3]: inactive

CCSCC(C)(O)c1[nH]c2cc(C(F)(F)F)c([N+](=O)[O-])cc2c1C#N (single isomer, unassigned) [compound 247]
% Inhibition [1]: 90%
active / inactive (inhibition of testosterone-enhanced prostate weight) [3]: inactive

CCSCC(C)(O)c1cc2cc(C#N)c(C(F)(F)F)cc2[nH]1 (stereo not drawn) [Compound #218, 2-(2-Ethylsulfanyl-1-hydroxy-1-methyl-ethyl)-6-trifluoromethyl-1H-indole-5-carbonitrile]
% Activity ([2]; 3000 nM): 0%
active / inactive (inhibition of testosterone-enhanced prostate weight) [3]: inactive

CCCSCC(C)(O)c1cc2cc(Cl)c(C(F)(F)F)cc2[nH]1 (racemic) [compound 196]
% Activity ([2]; 3000 nM): 13%
active / inactive (inhibition of testosterone-enhanced prostate weight) [3]: inactive

CCSCC(C)(O)c1[nH]c2cc(C(F)(F)F)c([N+](=O)[O-])cc2c1C (racemic) [compound 221]
% Activity ([2]; 3000 nM): −1%
active / inactive (inhibition of testosterone-enhanced prostate weight) [3]: inactive

CCS(=O)(=O)CC(C)(O)c1[nH]c2cc(C(F)(F)F)c(C#N)cc2c1C (racemic) [compound 246]
inhibition at 3 µM [1]: 70%
